We go through 15 compounds from ChEMBL document CHEMBL1139602, “Biological evaluation of Tyr6 and Ser7 modified drosocin analogues” (2005).

In assay [1] the test system is Escherichia coli. The assay can be described thus: Minimum inhibitory concentration against Escherichia coli ATCC 11775 strain. In kind it is functional.
Assay [2] relates to Cell line. The assay can be described thus: Percent of intact peptide after 8 hr of digestion in 25% human serum. The format is functional.

In brackets after ≈: the same amount, converted by molar mass. Square brackets hold non-standard residues; d marks the D form. Peptide text beside a SMILES is read from it. Ava = NCCCCC(=O)O; GABA = NCCCC(=O)O; βAla = NCCC(=O)O

Regarding `CC[C@H](C)[C@H](NC(=O)[C@@H]1CCCN1C(=O)[C@H](CCCN=C(N)N)NC(=O)[C@@H]1CCCN1C(=O)[C@H](Cc1c[nH]cn1)NC(=O)[C@H](CO)NC(=O)[C@@H](NC(=O)[C@@H]1CCCN1C(=O)[C@H](CCCN=C(N)N)NC(=O)[C@@H]1CCCN1C(=O)[C@H](CO)NC(=O)[C@@H](Cc1ccc(O)cc1)NC(=O)[C@@H]1CCCN1C(=O)[C@H](CCCN=C(N)N)NC(=O)[C@@H]1CCCN1C(=O)[C@H](CCCCN)NC(=O)CN)[C@@H](C)O)C(=O)N[C@@H](CCCN=C(N)N)C(=O)N[C@H](C=O)C(C)C`, inhibition of growth in assay [1] (MIC) required 6.3 µM (≈ 13.8 µg/mL). For the same compound, the Intact in assay [2] is 16%.

On to `CC[C@H](C)[C@H](NC(=O)[C@@H]1CCCN1C(=O)[C@H](CCCN=C(N)N)NC(=O)[C@@H]1CCCN1C(=O)[C@H](Cc1c[nH]cn1)NC(=O)[C@H](CO)NC(=O)[C@@H](NC(=O)[C@@H]1CCCN1C(=O)[C@H](CCCN=C(N)N)NC(=O)[C@@H]1CCCN1C(=O)[C@H](CO)NC(=O)C[C@@H](Cc1ccc(O)cc1)NC(=O)[C@@H]1CCCN1C(=O)[C@H](CCCN=C(N)N)NC(=O)[C@@H]1CCCN1C(=O)[C@H](CCCCN)NC(=O)CN)[C@@H](C)O)C(=O)N[C@@H](CCCN=C(N)N)C(=O)N[C@H](C=O)C(C)C`, for which, in assay [1], it took 3.1 µM (≈ 6.81 µg/mL) to inhibit growth (MIC). This compound had an Intact in assay [2] of 2%.

Turning to `CC[C@H](C)[C@H](NC(=O)[C@@H]1CCCN1C(=O)[C@H](CCCN=C(N)N)NC(=O)[C@@H]1CCCN1C(=O)[C@H](Cc1c[nH]cn1)NC(=O)[C@H](CO)NC(=O)[C@@H](NC(=O)[C@@H]1CCCN1C(=O)[C@H](CCCN=C(N)N)NC(=O)[C@@H]1CCCN1C(=O)[C@@H](CO)NC(=O)[C@@H](Cc1ccc(O)cc1)NC(=O)[C@@H]1CCCN1C(=O)[C@H](CCCN=C(N)N)NC(=O)[C@@H]1CCCN1C(=O)[C@H](CCCCN)NC(=O)CN)[C@@H](C)O)C(=O)N[C@@H](CCCN=C(N)N)C(=O)N[C@H](C=O)C(C)C`, in assay [1], it took 25 µM (≈ 54.6 µg/mL) to inhibit growth (MIC). This compound returned an Intact in assay [2] of 17%.

Take `CC[C@H](C)[C@H](NC(=O)CNC(=O)[C@H](Cc1ccc(O)cc1)NC(=O)[C@H](CC(=O)O)NC(=O)[C@@H](NC(=O)[C@H](CO)NC(=O)CNC(=O)[C@H](CC(=O)O)NC(=O)[C@@H](NC(=O)[C@@H](N)CC(N)=O)[C@@H](C)O)[C@@H](C)O)C(=O)N[C@@H](CC(C)C)C(=O)N[C@@H](CCC(N)=O)C(=O)N[C@H](C(=O)N[C@@H](CC(N)=O)C(=O)N[C@@H](CO)C(=O)N[C@H](C=O)CCCN=C(N)N)[C@@H](C)CC`: the minimal inhibitory concentration (MIC) (usually the lowest concentration found to suppress growth) in assay [1] is over 100 µM.

In turn, `CC[C@H](C)[C@H](NC(=O)[C@@H]1CCCN1C(=O)[C@H](CCCN=C(N)N)NC(=O)[C@@H]1CCCN1C(=O)[C@H](Cc1c[nH]cn1)NC(=O)[C@H](CO)NC(=O)[C@@H](NC(=O)[C@@H]1CCCN1C(=O)[C@H](CCCN=C(N)N)NC(=O)[C@@H]1CCCN1C(=O)[C@@H](CO)NC(=O)[C@H](Cc1ccc(O)cc1)NC(=O)[C@@H]1CCCN1C(=O)[C@H](CCCN=C(N)N)NC(=O)[C@@H]1CCCN1C(=O)[C@H](CCCCN)NC(=O)CN)[C@@H](C)O)C(=O)N[C@@H](CCCN=C(N)N)C(=O)N[C@H](C=O)C(C)C` displayed a minimum inhibitory concentration (MIC) in assay [1] of 3.1 µM (≈ 6.77 µg/mL). Also, the Intact in assay [2] worked out at 1%.

The compound `CC[C@H](C)[C@H](NC(=O)[C@@H]1CCCN1C(=O)[C@H](CCCN=C(N)N)NC(=O)[C@@H]1CCCN1C(=O)[C@H](Cc1c[nH]cn1)NC(=O)[C@H](CO)NC(=O)[C@@H](NC(=O)[C@@H]1CCCN1C(=O)[C@H](CCCN=C(N)N)NC(=O)[C@@H]1CCCN1C(=O)C[C@@H](CO)NC(=O)[C@H](Cc1ccc(O)cc1)NC(=O)[C@@H]1CCCN1C(=O)[C@H](CCCN=C(N)N)NC(=O)[C@@H]1CCCN1C(=O)[C@H](CCCCN)NC(=O)CN)[C@@H](C)O)C(=O)N[C@@H](CCCN=C(N)N)C(=O)N[C@H](C=O)C(C)C` displayed an MIC in assay [1] of 3.1 µM (≈ 6.81 µg/mL). In assay [2], this compound came in with an Intact of 31%.

As to `CC[C@H](C)[C@H](NC(=O)[C@@H]1CCCN1C(=O)[C@H](CCCN=C(N)N)NC(=O)[C@@H]1CCCN1C(=O)[C@H](Cc1c[nH]cn1)NC(=O)[C@H](CO)NC(=O)[C@@H](NC(=O)[C@@H]1CCCN1C(=O)[C@H](CCCN=C(N)N)NC(=O)[C@@H]1CCCN1C(=O)[C@H](CO)NC(=O)[C@H](Cc1ccccc1)NC(=O)[C@@H]1CCCN1C(=O)[C@H](CCCN=C(N)N)NC(=O)[C@@H]1CCCN1C(=O)[C@H](CCCCN)NC(=O)CN)[C@@H](C)O)C(=O)N[C@@H](CCCN=C(N)N)C(=O)N[C@H](C=O)C(C)C` (H-GKPRPFSPRPTSHPRPIRV-aldehyde), in assay [1], the minimum inhibitory concentration (MIC) turned out to be 3.1 µM (≈ 6.72 µg/mL). Besides, the Intact in assay [2] was 19%.

Turning to `CC[C@H](C)[C@H](NC(=O)[C@@H]1CCCN1C(=O)[C@H](CCCN=C(N)N)NC(=O)[C@@H]1CCCN1C(=O)[C@H](Cc1c[nH]cn1)NC(=O)[C@H](CO)NC(=O)[C@@H](NC(=O)[C@@H]1CCCN1C(=O)[C@H](CCCN=C(N)N)NC(=O)[C@@H]1CCCN1C(=O)[C@@H](NC(=O)[C@H](Cc1ccccc1)NC(=O)[C@@H]1CCCN1C(=O)[C@H](CCCN=C(N)N)NC(=O)[C@@H]1CCCN1C(=O)[C@H](CCCCN)NC(=O)CN)[C@@H](C)O)[C@@H](C)O)C(=O)N[C@@H](CCCN=C(N)N)C(=O)N[C@H](C=O)C(C)C` (H-GKPRPFTPRPTSHPRPIRV-aldehyde), the minimum inhibitory concentration (MIC) in assay [1] came to 3.1 µM (≈ 6.76 µg/mL). This compound also gave an Intact in assay [2] of 26%.

In assay [1], `CC[C@H](C)[C@H](NC(=O)[C@@H]1CCCN1C(=O)[C@H](CCCN=C(N)N)NC(=O)[C@@H]1CCCN1C(=O)[C@H](Cc1c[nH]cn1)NC(=O)[C@H](CO)NC(=O)[C@@H](NC(=O)[C@@H]1CCCN1C(=O)[C@H](CCCN=C(N)N)NC(=O)[C@@H]1CCCN1C(=O)[C@H](COC)NC(=O)[C@H](Cc1ccc(O)cc1)NC(=O)[C@@H]1CCCN1C(=O)[C@H](CCCN=C(N)N)NC(=O)[C@@H]1CCCN1C(=O)[C@H](CCCCN)NC(=O)CN)[C@@H](C)O)C(=O)N[C@@H](CCCN=C(N)N)C(=O)N[C@H](C=O)C(C)C` (H-GKPRPYS(Me)PRPTSHPRPIRV-aldehyde) came in with an MIC of 25 µM (≈ 54.9 µg/mL). This compound also yielded an Intact in assay [2] of 11%.

Regarding `CC[C@H](C)[C@H](NC(=O)[C@@H]1CCCN1C(=O)[C@H](CCCN=C(N)N)NC(=O)[C@@H]1CCCN1C(=O)[C@H](Cc1c[nH]cn1)NC(=O)[C@H](CO)NC(=O)[C@@H](NC(=O)[C@@H]1CCCN1C(=O)[C@H](CCCN=C(N)N)NC(=O)[C@@H]1CCCN1C(=O)[C@@H](NC(=O)[C@H](Cc1ccc(O)cc1)NC(=O)[C@@H]1CCCN1C(=O)[C@H](CCCN=C(N)N)NC(=O)[C@@H]1CCCN1C(=O)[C@H](CCCCN)NC(=O)CN)[C@@H](C)O)[C@@H](C)O)C(=O)N[C@@H](CCCN=C(N)N)C(=O)N[C@H](C=O)C(C)C` (H-GKPRPYTPRPTSHPRPIRV-aldehyde), it took 1.6 µM (≈ 3.51 µg/mL) to inhibit growth in assay [1] (MIC). In assay [2], this compound displayed an Intact of 15%.

For the compound `CC[C@H](C)[C@H](NC(=O)[C@@H]1CCCN1C(=O)[C@H](CCCN=C(N)N)NC(=O)[C@@H]1CCCN1C(=O)[C@H](Cc1c[nH]cn1)NC(=O)[C@H](CO)NC(=O)[C@@H](NC(=O)[C@@H]1CCCN1C(=O)[C@H](CCCN=C(N)N)NC(=O)[C@@H]1CCCN1C(=O)[C@@H](NC(=O)[C@H](Cc1ccc(O)cc1)NC(=O)[C@@H]1CCCN1C(=O)[C@H](CCCN=C(N)N)NC(=O)[C@@H]1CCCN1C(=O)[C@H](CCCCN)NC(=O)CN)C(C)C)[C@@H](C)O)C(=O)N[C@@H](CCCN=C(N)N)C(=O)N[C@H](C=O)C(C)C` (H-GKPRPYVPRPTSHPRPIRV-aldehyde), in assay [1], the lowest concentration to inhibit growth (MIC) was 12.5 µM (≈ 27.4 µg/mL).

Take `CC[C@H](C)[C@H](NC(=O)[C@@H]1CCCN1C(=O)[C@H](CCCN=C(N)N)NC(=O)[C@@H]1CCCN1C(=O)[C@H](Cc1c[nH]cn1)NC(=O)[C@H](CO)NC(=O)[C@@H](NC(=O)[C@@H]1CCCN1C(=O)[C@H](CCCN=C(N)N)NC(=O)[C@@H]1CCCN1C(=O)[C@@H](NC(=O)[C@H](Cc1ccc(O)cc1)NC(=O)[C@@H]1CCCN1C(=O)[C@H](CCCN=C(N)N)NC(=O)[C@@H]1CCCN1C(=O)[C@H](CCCCN)NC(=O)CCCCN)[C@@H](C)O)[C@@H](C)O)C(=O)N[C@@H](CCCN=C(N)N)C(=O)N[C@H](C(=O)O)C(C)C` (H-[Ava]KPRPYTPRPTSHPRPIRV-OH): 6.3 µM (≈ 14.2 µg/mL) was the least that counted as inhibitory in assay [1] (MIC). In addition, in assay [2], the Intact stood at 84%.

For the compound `CC[C@H](C)[C@H](NC(=O)[C@@H]1CCCN1C(=O)[C@H](CCCN=C(N)N)NC(=O)[C@@H]1CCCN1C(=O)[C@H](Cc1c[nH]cn1)NC(=O)[C@H](CO)NC(=O)[C@@H](NC(=O)[C@@H]1CCCN1C(=O)[C@H](CCCN=C(N)N)NC(=O)[C@@H]1CCCN1C(=O)[C@@H](NC(=O)[C@H](Cc1ccc(O)cc1)NC(=O)[C@@H]1CCCN1C(=O)[C@H](CCCN=C(N)N)NC(=O)[C@@H]1CCCN1C(=O)[C@H](CCCCN)NC(=O)CCCN)C(C)C)[C@@H](C)O)C(=O)N[C@@H](CCCN=C(N)N)C(=O)N[C@H](C=O)C(C)C` (H-[GABA]KPRPYVPRPTSHPRPIRV-aldehyde), in assay [1], the MIC amounted to 6.3 µM (≈ 14 µg/mL). In addition, in assay [2], the Intact turned out to be 76%.

In the case of `CC[C@H](C)[C@H](NC(=O)[C@@H]1CCCN1C(=O)[C@H](CCCN=C(N)N)NC(=O)[C@@H]1CCCN1C(=O)[C@H](Cc1c[nH]cn1)NC(=O)[C@H](CO)NC(=O)[C@@H](NC(=O)[C@@H]1CCCN1C(=O)[C@H](CCCN=C(N)N)NC(=O)[C@@H]1CCCN1C(=O)[C@@H](NC(=O)[C@H](Cc1ccc(O)cc1)NC(=O)[C@@H]1CCCN1C(=O)[C@H](CCCN=C(N)N)NC(=O)[C@@H]1CCCN1C(=O)[C@H](CCCCN)NC(=O)CCN)[C@@H](C)O)[C@@H](C)O)C(=O)N[C@@H](CCCN=C(N)N)C(=O)N[C@H](C(=O)O)C(C)C` (H-[βAla]KPRPYTPRPTSHPRPIRV-OH), in assay [1], inhibition of growth (MIC) required 3.1 µM (≈ 6.9 µg/mL). The compound further gave an Intact in assay [2] of 87%.

Compound H-GKPRPYSPRPTSHPRPIRV-OH [DROSOCIN] yielded an MIC in assay [1] of 6.3 µM. For the same compound, in assay [2], the Intact was determined as 3%.
